Data: article PMC2912373, “Low-Density Lipoprotein Receptor-Related Protein 1 (LRP1) Mediates Neuronal Aβ42 Uptake and Lysosomal Trafficking” (PLoS ONE, 2010)

Tested on: N2a-mLRP4-Tless cells
Assay: FAM-Aβ42 uptake in LRP1 endocytosis-deficient cells, FACS
Type: cell-based, mouse
Details: 500 nM, 48 h, pronase-treated and untreated cells
Text: To determine whether the endocytic function of LRP1 is required for Aβ42 internalization and accumulation, we first analyzed the effect of clathrin knockdown on the uptake of FAM-Aβ42 in N2a-mLRP4 cells. We decreased the expression of clathrin heavy chain by lentiviral-mediated delivery of small hairpin interfering RNA (shRNA) in N2a-mLRP4 cells and analyzed cell surface levels of mLRP4 by FACS. Lentiviral-mediated knockdown of clathrin heavy chain substantially decreases the protein levels of clathrin heavy chain and evokes a twofold-increase in the levels of cell surface mLRP4 in N2a cells (Fig. 4A), consistent with an impairment of clathrin-mediated endocytosis of this LRP1 minireceptor. […] As a control for specificity, we analyzed the uptake of a FAM-Aβ42 peptide that contained the same amino acid composition but in a scrambled sequence. […] To further confirm this, we specifically targeted the endocytic function of mLRP4 and analyzed the internalization of FAM-Aβ42 in LRP1 endocytosis-deficient cells. […]
Figure 4 LRP1 endocytosis is required for Aβ42 uptake and accumulation in N2a cells. […] The levels of cell surface and total pools of mLRP4 were determined by flow cytometric analyses with anti-HA antibody in non-permeabilized and saponin-treated cells, respectively. The surface-to-total ratio were calculated and plotted as fold-change to control-infected cells. […]

Substance: FAM-Aβ42: FAM-Aβ42 peptide (23526) from Anaspec; amyloid-β 42 with carboxyfluorescein at the N-terminal region
- FAM-Aβ42 uptake in N2a-mLRP4-Tless compared to N2a-pcDNA3 cells: similar
